# Assay results published in patent US20170283804A1, “ANTISENSE COMPOUNDS AND USES THEREOF” (Ionis Pharmaceuticals, Inc., priority 2014, published 2017).
# Oligonucleotides are written 5' to 3', each unit as a sugar letter and its base; * is a phosphorothioate linkage, no mark a phosphodiester; rarer units and linkages stand in square brackets, end groups in braces. Plain capitals give the bases only. e = 2'-O-(2-methoxyethyl) (MOE); k = constrained ethyl (cEt); [5mC] = 5-methylcytosine; d = 2'-deoxy (DNA)
# Experiments:
# [1] = test system: mouse Scavenger Receptor Class B, Number 1 (SRB-1) transcript; experiment: Isis No. 353382 activity in MHT cells with or without bioactive lipid pre-treatment (SRB-1 mRNA, real-time PCR); format: cell-based
# Source text: Antisense oligonucleotides were synthesized using standard solid phase oligonucleotide synthetic methods. Isis No. 353382 targets the mouse Scavenger Receptor Class B, Number 1 (SRB-1) transcript (GENBANK accession number NM_016741.1, SEQ ID NO: 1). The sequence of Isis No. 353382 is 5′-[…]-3′ (SEQ ID NO: 2). It is a 5-10-5 MOE gapmer, wherein the five nucleosides at the 5′-end and the five nucleosides at the 3′-end comprise 2′-methoxyethyl (MOE) modifications, and the ten middle nucleosides are 2′-deoxynucleosides. All internucleoside linkages are phosphorothioate linkages. The cytosine bases are 5-methylcytosines.
# In order to test the effect of pre-treatment with bioactive lipids on Isis No. 353382 activity in vitro, mouse hepatocellular SV40 large T-antigen (MHT) carcinoma cells were treated with 200 nM myriocin or 3 μM FTY-720 was added 2 hours before Isis No. 353382 at the concentrations shown in Tables 1 and 2 below. Cells were lysed 24 hours following oligonucleotide addition, and total RNA was purified. SRB-1 mRNA levels were determined using real-time PCR and RIBOGREEN® RNA quantification reagent (Molecular Probes, Inc. Eugene, Oreg.) according to standard protocols.
# [2] = test system: mouse Metastasis associated lung adenocarcinoma transcript 1 (Malat-1); experiment: In vivo dose response of Isis No. 556062 with and without FTY-720 pre-treatment (Malat-1 RNA, Example 3); conditions: mice; liver; 1 mg/kg FTY-720 i.p. once a day for 11 days; Isis No. 556062 subcutaneous on day 10
# Method: Each treatment group consisted of 4 animals.
# Malat-1 RNA levels were determined as described in Example 2. The results are presented in Table 18 as average Malat-1 RNA levels for each treatment group. Results for groups that received Isis No. 556062 alone are relative the group that received only PBS, and results for groups that received Isis No. 556062 and 1 mg/kg FTY-720 are relative to the group that received 1 mg/kg FTY-720 and PBS in place of Isis No. 556062.
# [3] = test system: mouse Metastasis associated lung adenocarcinoma transcript 1 (Malat-1); experiment: In vivo activity of Isis No. 556062 with and without FTY-720 pre-treatment (Malat-1 RNA in tissues, Example 2); conditions: mice
# Source text: Isis No. 556062 targets the mouse Metastasis associated lung adenocarcinoma transcript 1 (Malat-1, GENBANK accession number NR_002847.2, SEQ ID NO: 3). The sequence of Isis No. 556062 is 5′-GGCTTAATGCAGCATT-3′ (SEQ ID NO: 4). It is a 3-10-3 (S)-cEt gapmer, wherein the three nucleosides at the 5′-end and the three nucleosides at the 3′-end comprise 2′-O—CH(CH3)-4′ modifications, and the ten middle nucleosides are 2′-deoxynucleosides. All internucleoside linkages are phosphorothioate linkages. The cytosine bases are 5-methylcytosines.
# Malat-1 RNA levels were determined using real-time PCR and RIBOGREEN® RNA quantification reagent (Molecular Probes, Inc. Eugene, OR) according to standard protocols. Malat-1 RNA levels were determined relative to total RNA (using Ribogreen), prior to normalization to PBS-treated control. The results are presented in Table 16 as average Malat-1 RNA levels for each treatment group. Results for groups that received Isis No. 556062 alone are relative the group that received only PBS, and results for groups that received Isis No. 556062 and FTY-720 are relative to the group that received 3 mg/kg FTY-720 and PBS in place of Isis No. 556062.
compound,measurement,setting,value
"CCCCCCCCc1ccc(CCC(N)(CO)CO)cc1 [FTY-720, 2-amino-2-[2-(4-octylphenyl)ethyl]propane-1,3-diol, reference compound]",Effect of pre-treatment on the effect of Isis No. 353382 in vitro,[1]; 3 μM FTY-720 2 hours before Isis No. 353382,potentiated the effect of Isis No. 353382
same,Effect of pre-treatment on the effect of Isis No. 556062 in vivo,[2],potentiated the effect of Isis No. 556062
same,Effect of pre-treatment on the effect of Isis No. 556062 in vivo,"[3]; liver and fat, FTY-720 0.3, 1 or 3 mg/kg i.p. once a day for 11 days, Isis No. 556062 i.p. on day 10",potentiated the effect of Isis No. 556062
"CCCCCCC(=O)CCCCCC/C=C/C[C@@H](O)[C@H](O)[C@@](N)(CO)C(=O)O [myriocin, reference compound]",Effect of pre-treatment on the effect of Isis No. 353382 in vitro,[1]; 200 nM myriocin 2 hours before Isis No. 353382,potentiated the effect of Isis No. 353382
"Isis No. 353382: 5-10-5 MOE gapmer 5′-GCTTCAGTCATGACTTCCTT-3′ (SEQ ID NO: 2), all phosphorothioate linkages, 5-methylcytosines; targets mouse SRB-1 transcript (antisense eG*e[5mC]*eT*eT*e[5mC]*dA*dG*dT*d[5mC]*dA*dT*dG*dA*d[5mC]*dT*eT*e[5mC]*e[5mC]*eT*eT)",Average SRB-1 mRNA level in cells receiving 200 nM myriocin,"[1]; 0.16 nM Isis No. 353382, 200 nM myriocin added 2 hours before, 24 hours",73.5 % control
same,Average SRB-1 mRNA level in cells receiving 3 μM FTY-720,"[1]; 0.16 nM Isis No. 353382, 3 μM FTY-720 added 2 hours before, 24 hours",85.5 % control
same,Average SRB-1 mRNA level in cells receiving no pre-treatment,"[1]; 0.16 nM Isis No. 353382, 24 hours, no pre-treatment",96.9 % control
same,Average SRB-1 mRNA level in cells receiving no pre-treatment,"[1]; 0.16 nM Isis No. 353382, no pre-treatment, 24 hours",91.8 % control
same,Average SRB-1 mRNA level in cells receiving 200 nM myriocin,"[1]; 0.64 nM Isis No. 353382, 200 nM myriocin added 2 hours before, 24 hours",73.2 % control
same,Average SRB-1 mRNA level in cells receiving 3 μM FTY-720,"[1]; 0.64 nM Isis No. 353382, 3 μM FTY-720 added 2 hours before, 24 hours",77.8 % control
same,Average SRB-1 mRNA level in cells receiving no pre-treatment,"[1]; 0.64 nM Isis No. 353382, 24 hours, no pre-treatment",95.9 % control
same,Average SRB-1 mRNA level in cells receiving no pre-treatment,"[1]; 0.64 nM Isis No. 353382, no pre-treatment, 24 hours",87.8 % control
same,Average SRB-1 mRNA level in cells receiving 200 nM myriocin,"[1]; 3.2 nM Isis No. 353382, 200 nM myriocin added 2 hours before, 24 hours",46.8 % control
same,Average SRB-1 mRNA level in cells receiving 3 μM FTY-720,"[1]; 3.2 nM Isis No. 353382, 3 μM FTY-720 added 2 hours before, 24 hours",65.9 % control
same,Average SRB-1 mRNA level in cells receiving no pre-treatment,"[1]; 3.2 nM Isis No. 353382, 24 hours, no pre-treatment",72.2 % control
same,Average SRB-1 mRNA level in cells receiving no pre-treatment,"[1]; 3.2 nM Isis No. 353382, no pre-treatment, 24 hours",80.9 % control
same,Average SRB-1 mRNA level in cells receiving 200 nM myriocin,"[1]; 16 nM Isis No. 353382, 200 nM myriocin added 2 hours before, 24 hours",36.1 % control
same,Average SRB-1 mRNA level in cells receiving 3 μM FTY-720,"[1]; 16 nM Isis No. 353382, 3 μM FTY-720 added 2 hours before, 24 hours",46.5 % control
same,Average SRB-1 mRNA level in cells receiving no pre-treatment,"[1]; 16 nM Isis No. 353382, 24 hours, no pre-treatment",46.3 % control
same,Average SRB-1 mRNA level in cells receiving no pre-treatment,"[1]; 16 nM Isis No. 353382, no pre-treatment, 24 hours",74.3 % control
same,Average SRB-1 mRNA level in cells receiving 200 nM myriocin,"[1]; 80 nM Isis No. 353382, 200 nM myriocin added 2 hours before, 24 hours",27.2 % control
same,Average SRB-1 mRNA level in cells receiving 3 μM FTY-720,"[1]; 80 nM Isis No. 353382, 3 μM FTY-720 added 2 hours before, 24 hours",27.1 % control
same,Average SRB-1 mRNA level in cells receiving no pre-treatment,"[1]; 80 nM Isis No. 353382, 24 hours, no pre-treatment",32.3 % control
same,Average SRB-1 mRNA level in cells receiving no pre-treatment,"[1]; 80 nM Isis No. 353382, no pre-treatment, 24 hours",53.5 % control
same,Average SRB-1 mRNA level in cells receiving 200 nM myriocin,"[1]; 400 nM Isis No. 353382, 200 nM myriocin added 2 hours before, 24 hours",23.5 % control
same,Average SRB-1 mRNA level in cells receiving 3 μM FTY-720,"[1]; 400 nM Isis No. 353382, 3 μM FTY-720 added 2 hours before, 24 hours",23.6 % control
same,Average SRB-1 mRNA level in cells receiving no pre-treatment,"[1]; 400 nM Isis No. 353382, 24 hours, no pre-treatment",26.8 % control
same,Average SRB-1 mRNA level in cells receiving no pre-treatment,"[1]; 400 nM Isis No. 353382, no pre-treatment, 24 hours",52.2 % control
same,Average SRB-1 mRNA level in cells receiving 200 nM myriocin,"[1]; 2,000 nM Isis No. 353382, 200 nM myriocin added 2 hours before, 24 hours",19.6 % control
same,Average SRB-1 mRNA level in cells receiving 3 μM FTY-720,"[1]; 2,000 nM Isis No. 353382, 3 μM FTY-720 added 2 hours before, 24 hours",16.8 % control
same,Average SRB-1 mRNA level in cells receiving no pre-treatment,"[1]; 2,000 nM Isis No. 353382, 24 hours, no pre-treatment",22.4 % control
same,Average SRB-1 mRNA level in cells receiving no pre-treatment,"[1]; 2,000 nM Isis No. 353382, no pre-treatment, 24 hours",44.9 % control
same,Average SRB-1 mRNA level in cells receiving 200 nM myriocin,"[1]; 10,000 nM Isis No. 353382, 200 nM myriocin added 2 hours before, 24 hours",15.6 % control
same,Average SRB-1 mRNA level in cells receiving 3 μM FTY-720,"[1]; 10,000 nM Isis No. 353382, 3 μM FTY-720 added 2 hours before, 24 hours",12.1 % control
same,Average SRB-1 mRNA level in cells receiving no pre-treatment,"[1]; 10,000 nM Isis No. 353382, 24 hours, no pre-treatment",16.6 % control
same,Average SRB-1 mRNA level in cells receiving no pre-treatment,"[1]; 10,000 nM Isis No. 353382, no pre-treatment, 24 hours",36.0 % control
"Isis No. 556062: 3-10-3 (S)-cEt gapmer 5′-GGCTTAATGCAGCATT-3′ (SEQ ID NO: 4), all phosphorothioate linkages, 5-methylcytosines; targets mouse Malat-1 (antisense kG*kG*k[5mC]*dT*dT*dA*dA*dT*dG*d[5mC]*dA*dG*d[5mC]*kA*kT*kT)",Average Malat-1 RNA,"[3]; Fat, 2 mg/kg Isis No. 556062 i.p., 0 mg/kg FTY-720",89 % control
same,Average Malat-1 RNA,"[3]; Fat, 2 mg/kg Isis No. 556062 i.p., 0.3 mg/kg FTY-720 i.p. daily",54 % control
same,Average Malat-1 RNA,"[3]; Fat, 2 mg/kg Isis No. 556062 i.p., 1 mg/kg FTY-720 i.p. daily",69 % control
same,Average Malat-1 RNA,"[3]; Fat, 2 mg/kg Isis No. 556062 i.p., 3 mg/kg FTY-720 i.p. daily",45 % control
same,Average Malat-1 RNA,"[3]; Fat, 10 mg/kg Isis No. 556062 i.p., 0 mg/kg FTY-720",63 % control
same,Average Malat-1 RNA,"[3]; Fat, 10 mg/kg Isis No. 556062 i.p., 0.3 mg/kg FTY-720 i.p. daily",39 % control
same,Average Malat-1 RNA,"[3]; Fat, 10 mg/kg Isis No. 556062 i.p., 1 mg/kg FTY-720 i.p. daily",32 % control
same,Average Malat-1 RNA,"[3]; Fat, 10 mg/kg Isis No. 556062 i.p., 3 mg/kg FTY-720 i.p. daily",39 % control
same,Average Malat-1 RNA,"[3]; Liver, 2 mg/kg Isis No. 556062 i.p., 0 mg/kg FTY-720",36 % control
same,Average Malat-1 RNA,"[3]; Liver, 2 mg/kg Isis No. 556062 i.p., 0.3 mg/kg FTY-720 i.p. daily",30 % control
same,Average Malat-1 RNA,"[3]; Liver, 2 mg/kg Isis No. 556062 i.p., 1 mg/kg FTY-720 i.p. daily",23 % control
same,Average Malat-1 RNA,"[3]; Liver, 2 mg/kg Isis No. 556062 i.p., 3 mg/kg FTY-720 i.p. daily",24 % control
same,Average Malat-1 RNA,"[3]; Liver, 10 mg/kg Isis No. 556062 i.p., 0 mg/kg FTY-720",12 % control
same,Average Malat-1 RNA,"[3]; Liver, 10 mg/kg Isis No. 556062 i.p., 0.3 mg/kg FTY-720 i.p. daily",9 % control
same,Average Malat-1 RNA,"[3]; Liver, 10 mg/kg Isis No. 556062 i.p., 1 mg/kg FTY-720 i.p. daily",7 % control
same,Average Malat-1 RNA,"[3]; Liver, 10 mg/kg Isis No. 556062 i.p., 3 mg/kg FTY-720 i.p. daily",10 % control
